US4073908A, “8-Amino-theophylline derivatives and therapeutic applications thereof” (Laboratoire le Brun S.A., priority 1975, dated 1978)

Legend:
[1] = tested on: group toxicity of amphetamine in mice; experiment: Antagonistic activity on the group toxicity of amphetamine in mice; type: in vivo; details: Mus musculus, read-out: AD50, antagonistic activity on the group toxicity of amphetamine
[2] = tested on: aggressiveness subsequent to electric shocks in rats; experiment: Anti-aggressive: aggressiveness subsequent to electric shocks, rats; type: in vivo; details: Rattus norvegicus, oral, read-out: Oral AD50, electric shock in rats
Method: (§1) a. aggressiveness subsequent to electric shocks in mice and rats,
(§2) In all cases, the AD50 values were determined by the oral route.

[3] = tested on: aggressiveness subsequent to apomorphine injection in rats; experiment: Anti-aggressive: aggressiveness subsequent to apomorphine injection, rats; type: in vivo; details: Rattus norvegicus, oral, apomorphine injection 1 mg/kg, read-out: Oral AD50, apomorphine, in rats
Method: b. aggressiveness subsequent to apomorphine injection (1 mg/kg, in vivo) in rats,
as §2

[4] = tested on: aggressiveness subsequent to electric shocks in mice; experiment: Anti-aggressive: aggressiveness subsequent to electric shocks, mice; type: in vivo; details: Mus musculus, oral, read-out: Oral AD50, electric shock in mice
Method: as §1, §2

Acute toxicity in rats = type: in vivo; details: rat, in vivo, po, single administration
Excerpt: (§3) Acute toxicity in mice by the sub-cutaneous and oral routes and in rats by the oral route was investigated by determination of the death rate following a single administration of increasing dosages.
(§4) Symbol > means that the LD50 is not attained at the dosage indicated.

rats = experiment: Oral subacute toxicity in rats; type: in vivo; details: 1 month old rats, up to a daily dosage of 100 mg/kg
Excerpt: Oral subacute toxicity in rats was investigated by determination of the death rate (if any), of the change in the weight of some organs, and by hematologic examinations, and the like.
Subacute toxicity in 1 month old rats, with compounds Nos. 11 and 18

[5] = tested on: aggressiveness in mice-killing rats; experiment: Anti-aggressive: aggressiveness in mice-killing rats; type: in vivo; details: Rattus norvegicus, oral, read-out: Oral AD50, mice-killing rats
Method: d. aggressiveness in mice-killing rats.
as §2

psychotropic activity = experiment: Psychotropic activity, overall profile; details: in vivo
Excerpt: The psychotropic and anti-inflammatory effects of the derivatives of this invention were investigated according to several methods described hereinafter.

[6] = tested on: narcosis induced by ethanol in mice; experiment: Effect on narcosis induced by ethanol; type: in vivo
Excerpt: d. Effect on narcosis induced by pentobarbital and ethanol in mice.

writhing in mice = experiment: Antalgic: writhing test in mice (intraperitoneal acetic acid); type: in vivo; details: Mus musculus, oral route, read-out: AD50 on administration of acetic acid
Method: (§5) The following tests were carried out:
(§6) a. writhing test in mice, by the oral route (on intraperitoneal administration of acetic acid),

[7] = tested on: aggressiveness subsequent to extended isolation in mice; experiment: Anti-aggressive: aggressiveness subsequent to extended isolation, mice; type: in vivo; details: Mus musculus, oral, read-out: Oral AD50, isolated mice
Method: c. aggressiveness subsequent to extended isolation, in mice,
as §2

licking reflex in mice = experiment: Antalgic: hot-plate test, licking reflex; type: in vivo; details: Mus musculus, plate heated at 65° C., read-out: AD50 in the hot-plate test (licking reflex)
Method: as §5
(§7) b. hot-plate test: licking reflex in mice on a plate heated at 65° C.

Acute toxicity in mice = type: in vivo; details: mouse, in vivo, single administration
Excerpt: as §3, §4

motor activity in mice = experiment: Motor-stimulant or -depressant activity, light-beam activometer; type: in vivo; details: sub-cutaneous or oral routes
Method: The motor-stimulant or -depressant activities were investigated in mice by the sub-cutaneous or oral routes by means of an activometric technique (light-beam activometer).
The dosages which increase or decrease the number of cases over the 50% limit were determined with respect to concomitantly effected reference tests.

[8] = tested on: antalgic activity in mice; experiment: Antalgic activity overall (writhing and hot-plate); type: in vivo
Method: as §5, §6, §7

## Cn1c(=O)c2c(nc3n2CCCN3CCN2CCN(c3cccc(Cl)c3)CC2)n(C)c1=O [Compound 18, 9-(2-4-(m-chlorophenyl)piperazin-1-yl!-ethyl)1,3-dimethyl-6,7,8,9-tetrahydropyrimidino(2,1-f)-purine-2,4-dione]
[1]
  ED50: 20 mg/kg
[2]
  ED50: 45 mg/kg
[3]
  ED50: 85 mg/kg
[4]
  ED50: 15 mg/kg
Acute toxicity in rats
  LD50: > 100 mg/kg
rats
  death rate (fatal issue): No fatal issue was noted
[5]
  ED50: 22 mg/kg
Psychotropic activity
  psychotropic activity (in words): has the same characteristics
[6]
  ethanol-induced narcosis-potentiating effect: potentiates ethanol-induced narcosis
Writhing in mice
  ED50: 13 mg/kg
[7]
  ED50: 9 mg/kg
Licking reflex in mice
  ED50: 8.5 mg/kg
Acute toxicity in mice; po, read-out: LD50, oral route, mice
  LD50: > 300 mg/kg
Acute toxicity in mice; sc, read-out: LD50, s.c. route, mice
  LD50: > 300 mg/kg
Motor activity in mice; Mus musculus, read-out: AD50, sedative action
  ED50: 7.5 mg/kg
Motor activity in mice
  sedative action (in words): more sedative
[8]
  antalgic activity (in words): more antalgic
